Eleven compounds from ChEMBL document CHEMBL1201862, “PubChem BioAssay data set” (2004) can be followed below.

The structures appear in SMILES notation.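 Method: 48-hour compound exposure of cells in 96-well plates, five concentrations, linear interpolation of endpoints. GI50: concentration for 50% inhibition of growth.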 The source made the active and inactive calls. No stated cut-off is given here; in the data, active = GI50 up to about 1.1 µM and inactive = higher.

What all share (experiment): NCI tumour cell line growth inhibition, 48 h
Test [1] relates to SK-MEL-2.
Test [2] has as its system RPMI-8226.
Test [3] deals with PC-3.
Test [4] concerns HCT-15.
Test [5] has as its system IGROV-1.
Test [6] concerns U-251.
Test [7] has as its system SK-OV-3.
In test [8] the test system is Hs-578T.
The test system of test [9] is MDA-MB-231.
Test [10] has as its system DU-145.
Test [11] relates to 786-0.
Test [12] has as its system K562.
In test [13] the test system is OVCAR-5.
In test [14] the test system is A498.
In test [15] the test system is SF-295.
In test [16] the test system is UO-31.
Test [17] concerns KM12.
The subject of test [18] is MDA-MB-435.
Test [19] has as its system NCI/ADR-RES.
Test [20] has as its system CCRF-CEM.

As to `CCc1ncc(CO)n1Cc1cccc2ccccc12`, the GI50 in [1] is > 100 µM (inactive); in test [2] it was 73.3 µM (inactive); in test [3], > 100 µM (inactive); in [4], above 100 µM; in test [5], > 100 µM (inactive); in test [6] it was > 100 µM (inactive). Further, the GI50 in test [7], in test [8], in [9], in test [10], in test [11] and in [12] was > 100 µM (inactive) in each case. For the same compound, the GI50 in test [13] was > 100 µM (inactive); in test [14], > 100 µM (inactive); in [15], 53.1 µM (inactive); in test [16] it was > 100 µM (inactive); in test [17], 98.2 µM (inactive); in test [18], > 100 µM (inactive). Moreover, the GI50 in test [19] is 50.9 µM (inactive).

With `O=C(/C=C/c1ccc(OCC(=O)N2CCN(c3ccccc3)CC2)cc1)c1ccc(Cl)cc1`, the GI50 in [1] is 36.5 µM (inactive); in test [2] it was > 100 µM (inactive); in test [3], > 91.8 µM (inactive); in test [4], above 100 µM; in [5], 38.6 µM (inactive); in [6] it was 15.7 µM (inactive). In addition, the GI50 was 27.5 µM (inactive) in [7]; 21.7 µM (inactive) in test [8]; 25.5 µM (inactive) in test [9]; 51.2 µM (inactive) in [10]; 22 µM (inactive) in test [11]; > 100 µM (inactive) in test [12]. Further, the GI50 is > 100 µM (inactive) in test [13]; 23.4 µM (inactive) in test [14]; 18.6 µM (inactive) in test [15]; > 71 µM (inactive) in test [16]; > 100 µM (inactive) in test [17]; > 100 µM (inactive) in [18]. Further, the figures for the GI50 in test [19] and in [20] were 59.2 µM (inactive) and > 100 µM (inactive), respectively.

In the case of `CN(CCN)[C@H](CSSC[C@@H](c1ccccc1O)N(C)CCN)c1ccccc1O`, the GI50 in [1] was 14.6 µM (inactive); in test [2], 12.9 µM (inactive); in test [3], 11.7 µM (inactive); in [4], 5.33 µM; in [6], 15.9 µM (inactive); in [7] it was 11.7 µM (inactive). The GI50 in [8] was 20.4 µM (inactive); in [9], 8.81 µM (inactive); in test [10], 14.8 µM (inactive); in test [11], 7.57 µM (inactive); in test [12], 7.18 µM (inactive); in test [13] it was 13.9 µM (inactive). Also, the GI50 is 20.2 µM (inactive) in test [14]; 6.85 µM (inactive) in test [15]; 10.1 µM (inactive) in test [16]; 11.1 µM (inactive) in test [17]; 18 µM (inactive) in [18]; 6.1 µM (inactive) in [19]. For the same compound, the GI50 in test [20] is 1.44 µM (inactive).

As for `O=C(O)/C(O)=C\C(=O)c1ccc(Br)cc1`, the GI50 in [1] was > 100 µM (inactive); in test [2], > 100 µM (inactive); in test [3], > 100 µM (inactive); in [4], above 100 µM; in [5], > 100 µM (inactive); in test [6], > 100 µM (inactive). Also, the GI50 in test [7], in [8], in test [9], in [10], in test [11] and in test [12] was > 100 µM (inactive) throughout. The GI50 in test [13], in test [14], in test [15], in test [16], in test [17] and in test [18] was > 100 µM (inactive) throughout. The GI50 was > 100 µM (inactive) in [19] and 68.7 µM (inactive) in [20].

For the compound `S=C1Cc2c(-c3ccccc3)cc(-c3ccc(Cl)cc3)nc2-c2ccccc2N1`, the GI50 in test [1] is 6.85 µM (inactive); in test [2], > 100 µM (inactive); in test [3] it was 6.14 µM (inactive); in [4], 6.84 µM; in [5], 0.971 µM (active); in [6] it was 0.746 µM (active). In addition, the GI50 in [7] was 2.38 µM (inactive); in test [8], 1.32 µM (inactive); in test [9], 1.53 µM (inactive); in test [10], 13 µM (inactive); in [11] it was 1.08 µM (active); in [13], 7.45 µM (inactive). Moreover, the GI50 in test [14] was 1.62 µM (inactive); in test [15], 3.39 µM (inactive); in test [16], 1.96 µM (inactive); in test [17], 8.75 µM (inactive); in [18] it was 4.79 µM (inactive); in [19], 2.38 µM (inactive). For the same compound, the GI50 in [20] was 3.08 µM (inactive).

Consider `N#Cc1nnn(-c2ccccc2)c1O`, for which the GI50 was > 100 µM (inactive) in test [1]; > 100 µM (inactive) in [2]; > 100 µM (inactive) in [3]; above 100 µM in test [4]; > 100 µM (inactive) in test [5]; > 100 µM (inactive) in [6]. For the same compound, the GI50 in test [7], in test [8], in test [9], in [10], in [11] and in [12] was > 100 µM (inactive) each time. Besides, the GI50 in test [13], in [14], in test [15], in [16], in [17] and in test [18] was > 100 µM (inactive) throughout. Further, in test [19], the GI50 is > 100 µM (inactive).

`Cc1ccc(N/C(Sc2ccccc2)=C(/C(Cl)=C(Cl)Cl)[N+](=O)[O-])c(C)c1`: the GI50 was 19.5 µM (inactive) in test [1]; 20.3 µM (inactive) in test [2]; 17.7 µM (inactive) in [3]; 16.8 µM in test [4]; 19.5 µM (inactive) in test [5]; 13.8 µM (inactive) in [6]. Moreover, the GI50 in test [7] was 37.8 µM (inactive); in [8] it was 44.4 µM (inactive); in test [9], 18.9 µM (inactive); in test [10], 36.1 µM (inactive); in [11], 16.5 µM (inactive); in test [12], 18 µM (inactive). Also, the GI50 was 17.8 µM (inactive) in test [13]; 21.8 µM (inactive) in [14]; 25.1 µM (inactive) in test [15]; 17.3 µM (inactive) in test [17]; 14.4 µM (inactive) in [18]; 23.7 µM (inactive) in test [19]. Also, the GI50 in test [20] was 17.9 µM (inactive).

With `N#CCC(=O)N/N=C\C(O)C(O)C(O)C(O)CO` (configuration not stated), the GI50 was > 100 µM (inactive) in test [1]; > 100 µM (inactive) in test [2]; > 100 µM (inactive) in [3]; above 100 µM in [4]; > 100 µM (inactive) in [5]; > 100 µM (inactive) in test [7]. Besides, the GI50 in test [8], in [9], in test [10], in [11], in [12] and in test [13] was > 100 µM (inactive) throughout. The GI50 in test [14], in test [15], in [16], in test [17], in test [18] and in [19] was > 100 µM (inactive) throughout. Further, in [20], the GI50 was > 100 µM (inactive).

Consider `Nc1nc(Cl)cc(NCC2(CO)CCC(CCc3ccccc3)C2)n1` (configuration not stated), for which the GI50 was 18.5 µM (inactive) in test [1]; 2.86 µM (inactive) in test [2]; 19.3 µM (inactive) in test [3]; 16.3 µM in test [4]; 17.5 µM (inactive) in [5]; 15 µM (inactive) in test [6]. Further, the GI50 in test [7] is 17.5 µM (inactive); in test [8], 21.3 µM (inactive); in test [9], 16.6 µM (inactive); in test [10], 14.8 µM (inactive); in test [11], 15.7 µM (inactive); in [12] it was 0.962 µM (active). Also, the GI50 in [13] is 14.5 µM (inactive); in test [14], 12.8 µM (inactive); in test [15], 0.687 µM (active); in test [16] it was 18 µM (inactive); in test [17], 13.9 µM (inactive); in test [18], 14.3 µM (inactive). Moreover, in test [19], the GI50 is 11.9 µM (inactive).

As to `O=C(/C=C\Nc1ccccc1O)C(Cl)(Cl)Cl`, the GI50 in test [1] is 43.2 µM (inactive); in test [2] it was 25.3 µM (inactive); in [3] it was 37.7 µM (inactive); in [4], 38.5 µM; in test [5], 43.4 µM (inactive); in test [6] it was 26.9 µM (inactive). The GI50 in test [7] is 53.2 µM (inactive); in test [8], 69 µM (inactive); in [9], > 100 µM (inactive); in [10], 45.8 µM (inactive); in [11], 22.8 µM (inactive); in [12] it was 36.7 µM (inactive). Further, the GI50 in test [13] is 77.4 µM (inactive); in test [14] it was 35.6 µM (inactive); in [15] it was 3.87 µM (inactive); in [16], 25.1 µM (inactive); in test [17], 33.7 µM (inactive); in test [18], 20.6 µM (inactive). The values for the GI50 in test [19] and in [20] were 99.3 µM (inactive) and 28.1 µM (inactive), respectively.

Regarding `CC1(C)[C@@H](Cn2cnc3c(Cl)nc(N)nc32)CC[C@@]1(C)CO`, the GI50 is 18.5 µM (inactive) in test [1]; 24.2 µM (inactive) in test [2]; 96.6 µM (inactive) in [3]; 35.9 µM in [4]; > 100 µM (inactive) in test [6]; > 100 µM (inactive) in test [7]. Moreover, the GI50 in test [8] was 19.7 µM (inactive); in [9] it was 21.3 µM (inactive); in test [10], > 100 µM (inactive); in test [11], > 100 µM (inactive); in [12] it was > 100 µM (inactive); in [13] it was > 100 µM (inactive). Besides, the GI50 in [14] is > 100 µM (inactive); in [15] it was > 100 µM (inactive); in [16] it was 3.74 µM (inactive); in test [17], > 100 µM (inactive); in test [18], 26.4 µM (inactive); in test [19], 83.4 µM (inactive). The GI50 in [20] is 31.6 µM (inactive).
